Source: PMC12136037, “Type II kinase inhibitors that target Parkinson’s disease–associated LRRK2” (Science Advances, 2025)

biological target: T1, LRRK2^KW (Homo sapiens, UniProt Q5S007); assay: DSF thermal stabilization of LRRK2^KW; assay type: binding; conditions: screen of 31 type-II inhibitors, Table S1
T1 construct: LRRK2 R1847 to E2527; His6-Z-tag (TEV cleavable) (N, cleaved yes); host or cells: Sf9 insect cells (baculovirus)
T1 sequence (Q5S007 1847-2527): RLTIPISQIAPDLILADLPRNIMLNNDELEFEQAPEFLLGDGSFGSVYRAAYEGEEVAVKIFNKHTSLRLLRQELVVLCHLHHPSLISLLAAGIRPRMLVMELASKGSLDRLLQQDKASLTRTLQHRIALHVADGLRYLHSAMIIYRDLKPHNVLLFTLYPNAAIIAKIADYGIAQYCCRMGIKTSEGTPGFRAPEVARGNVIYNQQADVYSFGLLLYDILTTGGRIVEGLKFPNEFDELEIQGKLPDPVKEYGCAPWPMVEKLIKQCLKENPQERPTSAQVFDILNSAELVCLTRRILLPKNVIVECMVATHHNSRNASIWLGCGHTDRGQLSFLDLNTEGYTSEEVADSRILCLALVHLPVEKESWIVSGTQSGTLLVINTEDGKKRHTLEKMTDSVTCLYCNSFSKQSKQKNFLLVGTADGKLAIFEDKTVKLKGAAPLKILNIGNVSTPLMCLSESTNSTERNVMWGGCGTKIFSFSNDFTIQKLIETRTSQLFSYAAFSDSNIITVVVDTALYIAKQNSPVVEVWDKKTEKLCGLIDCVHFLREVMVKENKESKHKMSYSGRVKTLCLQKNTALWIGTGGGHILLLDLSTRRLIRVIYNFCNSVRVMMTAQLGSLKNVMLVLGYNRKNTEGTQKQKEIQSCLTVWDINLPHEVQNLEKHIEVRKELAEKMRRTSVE
Experimental: To characterize binding between small molecules and LRRK2^KW, induced thermal stabilization was measured by DSF according to previously established protocols ([47]). In brief, LRRK2^KW was diluted to 4 μM in 20 mM Hepes (pH 7.4), 150 mM NaCl, 0.5 mM TCEP, 0.5% glycerol, 20 μM GDP, and 2.5 mM MgCl2, and SYPRO Orange was added (1:1000, MilliporeSigma). Inhibitor (10 μM) to be tested was added to a final sample volume of 20 μl per well of a 96-well plate (white, Starlab). […] The fluorescence was plotted against the temperature, and the melting point (Tm) was determined as the minimum of the first derivative relative to the control.

Compared with CCN1CCN(Cc2ccc(NC(=O)c3ccc(C)c(NC(=O)c4cncc(-c5cccs5)c4)c3)cc2C(F)(F)F)CC1 [ALW-II-41-27, reference compound], CCN1CCN(Cc2ccc(NC(=O)Nc3ccc(Oc4cc(NC)ncn4)cc3)cc2C(F)(F)F)CC1 [AST-487, reference compound] is higher in “dTm LRRK2(KW) [K]” value: -0.5 K for the first, 10 K for the second.

First: Cc1csc(-c2nnc(Nc3ccc(Oc4ncccc4-c4ccnc(N)n4)cc3)c3ccccc23)c1 [AMG 900, reference compound]
Second: O=C(Nc1ccc(OC(F)(F)F)cc1)c1sccc1NCc1ccnc2ccccc12 [OSI-930, reference compound]
The “dTm LRRK2(KW) [K]” value of the first is higher: 4.5 K for the first, 0 K for the second.

Compared with Cc1ccc(NC(=O)c2cccc(C(C)(C)C#N)c2)cc1Nc1ccc2ncn(C)c(=O)c2c1 [AZ 628, reference compound], Cc1ccc(NC(=O)c2cccc(N(C)C)c2)cc1NC(=O)c1ccc(O)cc1 [ZM336372, reference compound] is lower in “dTm LRRK2(KW) [K]” value: -0.5 K for the first, -1 K for the second.

Compared with N#CC1(c2ccc(NC(=O)c3cccnc3NCc3ccncc3)cc2)CCCC1 [Apatinib, reference compound], CC1(C)CNc2cc(NC(=O)c3cccnc3NCc3ccncc3)ccc21 [Motesanib, reference compound] is higher in “dTm LRRK2(KW) [K]” value: -1 K for the first, -0.5 K for the second.

Going from CNC(=O)c1ccccc1Sc1ccc2c(/C=C/c3ccccn3)n[nH]c2c1 [Axitinib, reference compound] to Cc1ccc(F)c(NC(=O)Nc2ccc(-c3cccc4[nH]nc(N)c34)cc2)c1 [Linifanib, reference compound], the “dTm LRRK2(KW) [K]” value falls from 7.5 K to 5.8 K.

Compared with Cc1ccc(-n2nc(C(C)(C)C)cc2NC(=O)Nc2ccc(OCCN3CCOCC3)c3ccccc23)cc1 [BIRB-796, reference compound], Cc1ccc(-n2nc(C(C)(C)C)cc2NC(=O)Nc2cc(COc3cccnc3)[nH]n2)cc1 [PF-4618433, reference compound] is higher in “dTm LRRK2(KW) [K]” value: 0 K for the first, 11 K for the second.

First: CCOc1ccn(-c2ccc(F)cc2)c(=O)c1C(=O)Nc1ccc(Oc2ccnc(N)c2Cl)c(F)c1 [BMS 777607, reference compound]
Second: COc1cc2nccc(Oc3ccc(NC(=O)C4(C(=O)Nc5ccc(F)cc5)CC4)cc3)c2cc1OC [Cabozantinib, reference compound]
The “dTm LRRK2(KW) [K]” value of the first is lower: 6.8 K for the first, 7.5 K for the second.

Compared with CN1CCN(C2CCN(C(=O)Nc3cc(Oc4ccc(NC(=O)C5(C(=O)Nc6ccc(F)cc6)CC5)c(F)c4)ccn3)CC2)CC1 [Golvatinib, reference compound], CNC(=O)c1cc(Oc2ccc(NC(=O)Nc3ccc(Cl)c(C(F)(F)F)c3)c(F)c2)ccn1 [Regorafinib, reference compound] is higher in “dTm LRRK2(KW) [K]” value: 0.5 K for the first, 5.5 K for the second.

Cc1ccc(NC(=O)c2ccc(CN3CCN(C)CC3)cc2)cc1Nc1nccc(-c2cccnc2)n1 [Imatinib, reference compound] and Cc1ccc(NC(=O)c2ccc(CN3CCN(C)CC3)cc2)cc1Nc1nc(-c2cccnc2)cs1 [Masitinib, reference compound] are the same in “dTm LRRK2(KW) [K]” value: 0 K for the first, 0 K for the second.

Compared with COc1cc(Oc2ccnc3cc(OC)c(OC)cc23)ccc1NC(=O)NC(C)c1nccs1 (centres unmarked) [KI20227, reference compound], COc1cc2nccc(Oc3ccc(NC(=O)Nc4cc(C)on4)c(Cl)c3)c2cc1OC [Tivozanib (AV-951), reference compound] is higher in “dTm LRRK2(KW) [K]” value: 3 K for the first, 11.5 K for the second.

Compared with Cc1ccc(C(=O)Nc2cccc(C(F)(F)F)c2)cc1Nc1nc(-c2cccnc2)nc2c1cnn2C [NVP-BHG712, reference compound], Cc1cn(-c2cc(NC(=O)c3ccc(C)c(Nc4nccc(-c5cccnc5)n4)c3)cc(C(F)(F)F)c2)cn1 [Nilotinib, reference compound] is lower in “dTm LRRK2(KW) [K]” value: -0.5 K for the first, -2.5 K for the second.

Compared with COC(=O)c1ccc2c(c1)NC(=O)/C2=C(\Nc1ccc(N(C)C(=O)CN2CCN(C)CC2)cc1)c1ccccc1 [Nintedanib, reference compound], COc1cc2c(Nc3ccc(NC(=O)c4ccccc4)cc3)ncnc2cc1OCCCN1CCOCC1 [ZM447439, reference compound] is higher in “dTm LRRK2(KW) [K]” value: 5 K for the first, 6.5 K for the second.

First: FC(F)(F)c1ccc(CNc2ccc(Cc3c[nH]c4ncc(Cl)cc34)cn2)cn1 [Pexidartinib, reference compound]
Second: CC(C)(C)c1cc(NC(=O)Nc2ccc(-c3cn4c(n3)sc3cc(OCCN5CCOCC5)ccc34)cc2)no1 [Quizartinib, reference compound]
The “dTm LRRK2(KW) [K]” value of the first is higher: 6.8 K for the first, 3.5 K for the second.
